In article PMC11120612, “In Vitro and In Vivo Evaluating Bioaccessibility, Bioavailability, and Antioxidant Activities of Butterfly Pea Flower Containing Bioactive Constitutes” (Foods, 2024):
Read-outs that look alike come from different tables or passages of the source.

What was measured:
[1] = Identification of prototypes and metabolites in rat serum and urine by UPLC-LTQ-Orbitrap-MS2 after BF extracts; assay type: in vivo, SD rats; settings: for Location: rat serum or urine after 500 mg/kg BW BF extracts, UPLC-LTQ-Orbitrap-MS2; for Detected in serum and/or urine: rat, after gavage of BF extracts
From the text: A total of 24 male SD rats aged between 6 and 8 weeks (200–220 g) were acquired from the Laboratory Animal Center of Jiangxi University of Chinese Medicine (Nanchang, China). […] During this period, they had free access to food and water. After adaptive feeding, rats were randomly divided into three groups (n = 8), including a negative control, serum collection, and urine collection groups. […] To establish baseline data, blood samples were collected from all rats before administering the BF extracts. […] Pretreatment of serum and urine samples was according to our previous study. The animal experiments were approved by the Animal Ethics Committee of Jiangxi University of Chinese Medicine (TEMPOR20230112).
The metabolic profile from blood and urine samples were conducted by UPLC-LTQ-Orbitrap-MS2 (Thermo Scientific, Bremen, Germany) according to previously published methods. The samples were prepared by SPE, centrifuged at 4 °C and 2000 rpm, and stored at −80 °C. […] The LTQ-Orbitrap-MS2 was operated in negative mode with a scan range of 50–2000 m/z. A data-dependent scan with CID was performed for fragmentation. The collision energy was set at 45 eV. Data acquisition and processing were performed with Xcalibur v.2.0 software (Thermo Fisher, San Jose, CA, USA) and Qualbrowser.

[2] = design: method as in PMID 16848510; settings: cited from earlier work
[3] = Serum pharmacokinetics in rats after consumption of 500 mg/kg BW of BF extracts; assay type: in vivo, SD rats; settings: for Detection in rat plasma/blood after administration of BF extracts: 500 mg/kg BW BF extracts
Experimental: A total of 24 male SD rats aged between 6 and 8 weeks (200–220 g) were acquired from the Laboratory Animal Center of Jiangxi University of Chinese Medicine (Nanchang, China). Prior to experimentation, the rats were acclimated for 7 days in an air-conditioned room maintained at 24 ± 1 °C with a 12 h light/dark cycle. During this period, they had free access to food and water. After adaptive feeding, rats were randomly divided into three groups (n = 8), including a negative control, serum collection, and urine collection groups. […] To establish baseline data, blood samples were collected from all rats before administering the BF extracts. Blood was collected from the orbits at 15 min, 30 min, 1 h, 1.5 h, 2 h, 4 h, 6 h, 8 h, and 10 h after drug administration. Urine was collected at 6, 12, and 24 h after administration. Pretreatment of serum and urine samples was according to our previous study. The animal experiments were approved by the Animal Ethics Committee of Jiangxi University of Chinese Medicine (TEMPOR20230112).
The quantification of substances identified was performed using an AB TRIPLE QUAD 4500 HPLC-MS2 (AB SCIEX, Framingham, MA, USA) system equipped with a C18 column (2.1 × 100 mm, 1.7 μm particle size; ACQUITY) at room temperature (25 °C). The mobile phase consisted of A (water containing 0.2% formic acid, v/v) and B (acetonitrile containing 0.2% formic acid, v/v) and the following binary program was used: 0–3 min, 5% B; 3–4 min, 95% B; 4–4.1 min, 95–5% B; 4.1–6.0 min, 5% B. The flow rate was 0.3 mL/min, and the injection volume was 10 μL. For sensitive detection and quantification, the analysis employed electrospray ionization (ESI) followed by multiple reaction monitoring (MRM) to selectively monitor the fragmentation patterns of the target analytes. Data acquisition and processing were performed with Qualbrowser.
Blood concentration/time data analysis was performed by non-compartment model analysis and processed using Peak View®1.6 (AB SCIEX), according to a previous publication. All data are presented as mean ± standard deviation (SD). The maximum plasma concentration (Cmax), and the time to reach the maximum plasma concentration (tmax) was calculated from the observed values.

[4] = rat serum, oral 500 mg/kg BW BF extracts, n = 8
[5] = male, SD, rat serum, oral 500 mg/kg BW BF extracts, n = 8

COc1cc(C(=O)O)ccc1O[C@@H]1O[C@H](C(=O)O)[C@@H](O)[C@H](O)[C@H]1O [M12, VA-4-glucuronide]
Location [1]: S

cyanidin-3-(p-coumaroyl) glucose
Location [1]: S
Detected in serum and/or urine [1]: serum

benzoic acid-4-glucuronide [M19]
Location [1]: S, U

Oc1cc(O)c2cc(O)c(-c3cc(O)c(O)c(O)c3)[o+]c2c1 [M16, delphinidin]
Location [1]: S, U

delphinidin-3-p-coumaroyl-rutinoside-5-glucoside [nasunin]
Time of rapid peak in rat plasma (postprandial) [2]: 15 min

O=C(O)c1ccc(O[C@@H]2O[C@H](C(=O)O)[C@@H](O)[C@H](O)[C@H]2O)c(O)c1 [M13, PCA-4-glucuronide]
Location [1]: S, U

C[C@@H]1O[C@@H](OC[C@H]2O[C@@H](Oc3c(-c4ccc(O)c(O)c4)oc4cc(O)cc(O)c4c3=O)[C@H](O)[C@@H](O)[C@@H]2O)[C@H](O)[C@H](O)[C@H]1O [rutin]
Detected in serum and/or urine [1]: exclusively in urine

O=C(O)c1ccc(O)c(OC2OC(C(=O)O)C(O)C(O)C2O)c1 (stereo not shown) [M11, PCA-3-glucuronide]
Location [1]: S

OC[C@H]1O[C@@H](Oc2cc3c(O)cc(O)cc3[o+]c2-c2cc(O)c(O)c(O)c2)[C@H](O)[C@@H](O)[C@@H]1O [Delphinidin 3-glucoside, delphinidin 3-glucoside]
Location [1]: S, U
Detected in serum and/or urine [1]: both serum and urine
AUC0-10 ([3]; rat serum, oral 500 mg/kg BW BF extracts, 0 to 10 h, n = 8): 54.654 ± 9.089 nM·h
Cmax [3, 4]: 0.0517 ± 0.0032 µM
t1/2 [3, 4]: 1.639 ± 0.271 h
tmax [3, 4]: 0.5 h
Detection in rat plasma/blood after administration of BF extracts [3]: detected

O=C(O)c1ccc(O)cc1 [4-Hydroxybenzoic acid, 4-hydroxybenzoic acid]
AUC(0-t) ([3]; male, SD, rat serum, oral 500 mg/kg BW BF extracts, 0 to 10 h, n = 8, read-out: AUC0-10): 31.3 ± 1.91 nM·h
Cmax [3, 5]: 0.00698 ± 0.000805 µM
half-life [3, 5]: 6.48 ± 5.16 h
tmax ([3]; male, SD, rat serum, oral 500 mg/kg BW BF extracts, n = 8, read-out: tmax): 1 h
Detection in rat plasma/blood after administration of BF extracts [3]: detected

O=C([O-])CC(=O)OC[C@H]1O[C@@H](Oc2cc3c(O)cc(O)cc3[o+]c2-c2cc(O[C@@H]3O[C@H](COC(=O)/C=C/c4ccc(O[C@@H]5O[C@H](COC(=O)/C=C/c6ccc(O)cc6)[C@@H](O)[C@H](O)[C@H]5O)cc4)[C@@H](O)[C@H](O)[C@H]3O)c(O)c(O[C@@H]3O[C@H](COC(=O)/C=C/c4ccc(O[C@@H]5O[C@H](COC(=O)/C=C/c6ccc(O)cc6)[C@@H](O)[C@H](O)[C@H]5O)cc4)[C@@H](O)[C@H](O)[C@H]3O)c2)[C@H](O)[C@@H](O)[C@@H]1O [ternatin D1]
Detection in rat plasma/blood after administration of BF extracts [3]: not detected
